According to ChEMBL document CHEMBL3045675, “Synthesis and structure-activity relationships of some pesticides with an alpha-amino acid function” (Biochim Biophys Acta, 1997):
The source made the active and inactive calls. The rule behind the calls is not given here.

What was measured:
Vicia faba [1] = test: Herbicidal activity against Vicia faba assessed as 1 mM of L-[3H]theronine uptake in leaf at 10 mM after 1 hr by liquid scintillation counting analysis relative to untreated control; assay type: functional
Vicia faba [2] = test: Herbicidal activity against Vicia faba assessed as 1 mM of L-[3H]theronine uptake in leaf at 1 mM after 1 hr by liquid scintillation counting analysis relative to untreated control; assay type: functional
Vicia faba [3] = test: Herbicidal activity against Vicia faba assessed as 1 mM of L-[3H]theronine uptake in leaf at 5 mM after 1 hr by liquid scintillation counting analysis relative to untreated control; assay type: functional
Vicia faba [4] = test: Herbicidal activity against Vicia faba assessed as inhibition of 1 mM of [U-14C]theronine uptake in veins after 1 hr by autoradiographic analysis relative to untreated control; assay type: functional, organism-based
Vicia faba [5] = test: Herbicidal activity against Vicia faba assessed as inhibition of 1 mM of L-[3H]theronine uptake in leaf at 1 mM after 1 hr by liquid scintillation counting analysis relative to untreated control; assay type: functional
Vicia faba [6] = test: Herbicidal activity against Vicia faba assessed as inhibition of 1 mM of [U-14C]theronine uptake in mesophyll after 1 hr by autoradiographic analysis relative to untreated control; assay type: functional, organism-based
Vicia faba [7] = test: Herbicidal activity against Vicia faba assessed as inhibition of 1 mM of [3H]sucrose uptake in leaf at 1 mM after 1 hr by liquid scintillation counting analysis relative to untreated control; assay type: functional, organism-based
[8] = Solubility in organic solvents; assay type: physicochemical
[9] = Octanol-water partition coefficient, log KOW of the compound; assay type: physicochemical; details: read-out: log KOW
[10] = Solubility in water; assay type: physicochemical; details: buffer
[11] = Solubility in hydrochloric acid; assay type: physicochemical
Vicia faba [12] = test: Herbicidal activity against Vicia faba assessed as 1 mM of L-[3H]lysine uptake in leaf at 1 mM after 1 hr by liquid scintillation counting analysis relative to untreated control; assay type: functional, organism-based
Vicia faba [13] = test: Herbicidal activity against Vicia faba assessed as decrease in 1 mM of L-[3H]lysine uptake in leaf at pH 8 at 2.5 mM after 1 hr by liquid scintillation counting analysis; assay type: functional, organism-based
Vicia faba [14] = test: Herbicidal activity against Vicia faba assessed as 1 mM of L-[3H]theronine uptake in leaf at 10 uM after 1 hr by liquid scintillation counting analysis relative to untreated control; assay type: functional
Vicia faba [15] = test: Herbicidal activity against Vicia faba assessed as 1 mM of L-[3H]theronine uptake in leaf at 20 uM after 1 hr by liquid scintillation counting analysis relative to untreated control; assay type: functional
Vicia faba [16] = test: Herbicidal activity against Vicia faba assessed as inhibition of 1 mM of L-[3H]threonine uptake in leaf at pH 4 at 2.5 mM after 1 hr by liquid scintillation counting analysis; assay type: functional
Vicia faba [17] = test: Herbicidal activity against Vicia faba assessed as change in 12 mM KCl-induced depolarization of transmembrane potential difference in mesophyll cells at 2.5 mM after 1 hr by electrophysiological assay; assay type: functional, organism-based
Vicia faba [18] = test: Herbicidal activity against Vicia faba assessed as change in 10 mM sucrose-induced depolarization of transmembrane potential difference in mesophyll cells at 2.5 mM after 1 hr by electrophysiological assay relative to control; assay type: functional, organism-based
Vicia faba [19] = test: Herbicidal activity against Vicia faba assessed as decrease in 1 mM of L-[3H]glutamate uptake in leaf at pH 8 at 2.5 mM after 1 hr by liquid scintillation counting analysis; assay type: functional, organism-based
Vicia faba [20] = test: Herbicidal activity against Vicia faba assessed as inhibition of 1 mM of L-[3H]lysine uptake in leaf at pH 4 at 2.5 mM after 1 hr by liquid scintillation counting analysis; assay type: functional
Vicia faba [21] = test: Herbicidal activity against Vicia faba assessed as decrease in 1 mM of L-[3H]lysine uptake in leaf at pH 3.5 at 2.5 mM after 1 hr by liquid scintillation counting analysis; assay type: functional, organism-based
Vicia faba [22] = test: Herbicidal activity against Vicia faba assessed as reduction in 10 mM threonine-induced depolarization of transmembrane potential difference in mesophyll cells at 2.5 mM after 1 hr by electrophysiological assay relative to control; assay type: functional, organism-based
Vicia faba [23] = test: Herbicidal activity against Vicia faba assessed as inhibition of threonine uptake; assay type: functional, organism-based; details: read-out: Ki(app)
Vicia faba [24] = test: Herbicidal activity against Vicia faba assessed as 1 mM of L-[3H]theronine uptake in leaf at 5 uM after 1 hr by liquid scintillation counting analysis relative to untreated control; assay type: functional
Vicia faba [25] = test: Herbicidal activity against Vicia faba assessed as 1 mM of L-[3H]glutamate uptake in leaf at 1 mM after 1 hr by liquid scintillation counting analysis relative to untreated control; assay type: functional
Vicia faba [26] = test: Herbicidal activity against Vicia faba assessed as inhibition of 1 mM of L-[3H]glutamate uptake in leaf at pH 4 at 2.5 mM after 1 hr by liquid scintillation counting analysis; assay type: functional
Vicia faba [27] = test: Herbicidal activity against Vicia faba assessed as inhibition of 1 mM of [U-14C]theronine loading in phloem after 1 hr by autoradiographic analysis relative to untreated control; assay type: functional, organism-based
Vicia faba [28] = test: Herbicidal activity against Vicia faba assessed as change in 10 mM sucrose-induced depolarization of transmembrane potential difference in mesophyll cells at 1 mM after 1 hr by electrophysiological assay (reference value: 9.2 +/- 7.1 mV); assay type: functional
Vicia faba [29] = test: Herbicidal activity against Vicia faba assessed as change in 12 mM KCl-induced depolarization of transmembrane potential difference in mesophyll cells at 1 mM after 1 hr by electrophysiological assay; assay type: functional, organism-based
Vicia faba [30] = test: Herbicidal activity against Vicia faba assessed as change in transmembrane potential difference in mesophyll cells at 1 mM after 1 hr by electrophysiological assay (reference value: - 154 +/- 13.2 mV); assay type: functional
Vicia faba [31] = test: Herbicidal activity against Vicia faba assessed as reduction in 10 mM threonine-induced depolarization of transmembrane potential difference in mesophyll cells at 1 mM after 1 hr by electrophysiological assay (reference value: 27.9 +/- 12.7 mV); assay type: functional

In the case of `CC(C)[C@H](N)C(=O)O` [VALINE], the Activity (Vicia faba [1]) is reported as 63.7%, the Activity (Vicia faba [2]) is reported as 99.2% and the Activity (Vicia faba [3]) is reported as 77.4%.
In the case of `Nc1ccc(OCC(=O)NCCCC[C@H](N)C(=O)O)cc1`, the inhibition (Vicia faba [4]) is reported as “Active”, the inhibition (Vicia faba [5]) is reported as “inactive” and the inhibition (Vicia faba [6]) is reported as “Active”. The inhibition (Vicia faba [7]) was “inactive”, the solubility [8] was “Insoluble” and the logP [9] was -3. For the same compound, the solubility [10] was “soluble” and the solubility [11] was “soluble”.
With `N[C@@H](CCCCNC(=O)COc1ccccc1)C(=O)O` [L-LYSINE-PHENOXYACETIC ACID] the inhibition (Vicia faba [4]) was “Active”, the inhibition (Vicia faba [6]) was “Active” and the inhibition (Vicia faba [7]) was “inactive”. For the same compound, the inhibition (Vicia faba [12]) was “Active”.
In the case of `N[C@@H](CCC(=O)O)C(=O)O` [GLUTAMIC ACID], the Activity (Vicia faba [1]) is reported as 67.2%, the Activity (Vicia faba [2]) is reported as 96.7% and the Activity (Vicia faba [3]) is reported as 76.2%.
In the case of `N[C@@H](CCCCNC(=O)COc1ccc(Cl)cc1Cl)C(=O)O`, the Activity (Vicia faba [13]) is reported as “Active”, the Activity (Vicia faba [14]) is reported as 91% and the Activity (Vicia faba [15]) is reported as 80.7%. The “inhibition (INH)” value (Vicia faba [16]) was 79%, the Activity (Vicia faba [17]) was “inactive” and the inhibition (Vicia faba [5]) was “Active”. For the same compound, the Activity (Vicia faba [18]) was “inactive”, the Activity (Vicia faba [19]) was “Active” and the inhibition (Vicia faba [7]) was “inactive”. The “inhibition (INH)” value (Vicia faba [20]) was 81%, the Activity (Vicia faba [21]) was “inactive” and the Activity (Vicia faba [22]) was “inactive”. The solubility [8] was “Insoluble”, the Ki (Vicia faba [23]) was 500 µM and the logP [9] was -0.49. The solubility [10] was “soluble”, the Activity (Vicia faba [24]) was 91.8% and the inhibition (Vicia faba [25]) was “Active”. For the same compound, the solubility [11] was “soluble”, the “inhibition (INH)” value (Vicia faba [26]) was 51% and the inhibition (Vicia faba [12]) was “Active”.
In the case of `N[C@@H](CCCCNC(=O)COc1ccc(Cl)cc1)C(=O)O` [L-LYSINE-4-CHLOROPHENOXYACETIC ACID], the inhibition (Vicia faba [7]) is reported as “inactive”.
In the case of `N[C@@H](CCCCNC(=O)COc1ccc([N+](=O)[O-])cc1)C(=O)O` [L-LYSINE-4-NITROPHENOXYACETICACID], the inhibition (Vicia faba [7]) is reported as “inactive”.
In the case of `Cc1cc(Cl)ccc1OCC(=O)NCCCC[C@H](N)C(=O)O` [L-LYSINE-2-METHYL-4-CHLOROROPHENOXYACETIC ACID], the inhibition (Vicia faba [5]) is reported as “Active”, the inhibition (Vicia faba [7]) is reported as “inactive” and the solubility [8] is reported as “Insoluble”. For the same compound, the logP [9] was -0.59, the solubility [10] was “soluble” and the solubility [11] was “soluble”.
`NCCCC[C@H](N)C(=O)O` [LYSINE] gave an Activity (Vicia faba [1]) of 104%, an Activity (Vicia faba [2]) of 97% and an Activity (Vicia faba [3]) of 99.6%.
With `N[C@@H](CCCCNC(=O)CCCOc1ccc(Cl)cc1Cl)C(=O)O` the inhibition (Vicia faba [27]) was “Active”, the Activity (Vicia faba [28]) was 10.1 mV and the inhibition (Vicia faba [5]) was “Active”. For the same compound, the Activity (Vicia faba [29]) was “inactive”, the Activity (Vicia faba [30]) was -161.9 mV and the inhibition (Vicia faba [7]) was “inactive”. For the same compound, the solubility [8] was “Insoluble”, the Activity (Vicia faba [31]) was 10.2 mV and the logP [9] was -0.49. For the same compound, the solubility [10] was “soluble”, the inhibition (Vicia faba [25]) was “Active” and the solubility [11] was “soluble”. For the same compound, the inhibition (Vicia faba [12]) was “Active”.
With `N[C@H](CCCCNC(=O)COc1ccc(Cl)cc1Cl)C(=O)O` [D-LYSINE-2,4-DICHLOROPHENO-XYACETIC ACID] the Activity (Vicia faba [2]) was 74.2%, the inhibition (Vicia faba [4]) was “inactive” and the inhibition (Vicia faba [6]) was “inactive”.
